According to BigSolDB 2.1:

O=[N+]([O-])c1ccc(Cl)c(Cl)c1
solubility (mole fraction)
Conditions	in ethanol	in methanol
278.15 K	0.02	0.0208
280.65 K	0.0271	0.0251
283.15 K	0.0352	0.0296
285.65 K	0.0444	0.0353
288.15 K	0.0549	0.0422
290.65 K	0.0661	0.0505
293.15 K	0.0769	0.0611
295.65 K	0.0888	0.0724
298.15 K	0.0997	0.0873
300.65 K	0.111	0.105
303.15 K	0.119	0.125
